Test results published in patent US10287301B2 (Achillion Pharmaceuticals, Inc., priority 2015, dated 2019).

Molecular target: Human Factor D (Homo sapiens (Human), UniProt P00746)
Experiment: Human Factor D Assay
Assay type: biochemical
Conditions: not given
Method in brief: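 Thioester cleavage assay: human Factor D (serum-derived, 80 nM final), substrate Z-L-Lys-SBzl with DTNB, both 100 μM final, after 5 min compound preincubation at room temperature.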

Sequence of Human Factor D (P00746 26-253): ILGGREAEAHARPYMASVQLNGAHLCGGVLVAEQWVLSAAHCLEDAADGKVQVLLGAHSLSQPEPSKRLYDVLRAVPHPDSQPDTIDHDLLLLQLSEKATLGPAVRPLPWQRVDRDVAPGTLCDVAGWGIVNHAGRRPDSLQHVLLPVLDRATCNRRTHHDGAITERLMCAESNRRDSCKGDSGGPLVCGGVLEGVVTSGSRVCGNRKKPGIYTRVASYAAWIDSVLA

Row | SMILES | IC50
1 | Cc1ncc(-c2ccc3c(c2)c(C(C)O)nn3CC(=O)N2C[C@H](F)C[C@H]2C(=O)Nc2cccc(Br)n2)cn1 (stereo partly drawn) [Compound 360, (2S,4R)-N-(6-bromopyridin-2-yl)-4-fluoro-1-(2-(3-(1-hydroxyethyl)-5-(2-methylpyrimidin-5-yl)-1H-indazol-1-yl)acetyl)pyrrolidine-2-carboxamide] | 1000 to 10000 nM

Same assay, conditions: Table 3; Human Factor D 80 nM, substrate Z-L-Lys-SBzl; read-out: IC50 (Stars)

Row | SMILES | IC50
2 | CC(=O)c1nn(CC(=O)N2[C@@H]3C[C@@H]3C[C@H]2C(=O)Nc2cncc(Br)n2)c2ccc(-c3cnc(N)nc3)cc12 [Compound 352, (1R,3S,5R)-2-(2-(3-Acetyl-5-(2-aminopyrimidin-5-yl)-1H-indazol-1-yl)acetyl)-N-(6-bromopyrazin-2-yl)-2-azabicyclo[3.1.0]hexane-3-carboxamide] | < 1000 nM
3 | CC(=O)c1nn(CC(=O)N2C[C@H](F)C[C@H]2C(=O)Nc2cncc(Br)n2)c2ccc(-c3cnc(N)nc3)cc12 [Compound 353, (2S,4R)-1-(2-(3-Acetyl-5-(2-aminopyrimidin-5-yl)-1H-indazol-1-yl)acetyl)-N-(6-bromopyrazin-2-yl)-4-fluoropyrrolidine-2-carboxamide] | < 1000 nM
4 | CC(=O)c1nn(CC(=O)N2C[C@H](F)C[C@H]2C(=O)Nc2cncc(Br)n2)c2ccc(-c3cnc(C4CC4)nc3)cc12 [Compound 354, (2S,4R)-1-(2-(3-Acetyl-5-(2-cyclopropylpyrimidin-5-yl)-1H-indazol-1-yl)acetyl)-N-(6-bromopyrazin-2-yl)-4-fluoropyrrolidine-2-carboxamide] | < 1000 nM
5 | CC(=O)c1nn(CC(=O)N2C[C@H](F)C[C@H]2C(=O)Nc2nc(CC(F)(F)F)cs2)c2ccc(-c3cnc(C)nc3)cc12 [Compound 355, (2S,4R)-1-(2-(3-Acetyl-5-(2-methylpyrimidin-5-yl)-1H-indazol-1-yl)acetyl)-4-fluoro-N-(4-(2,2,2-trifluoroethyl)thiazol-2-yl)pyrrolidine-2-carboxamide] | < 1000 nM
6 | CC(=O)c1nn(CC(=O)N2[C@@H]3C[C@@H]3C[C@H]2C(=O)Nc2cncc(Br)n2)c2ccc(-c3cnc(C4CC4)nc3)cc12 [Compound 356, (1R,3S,5R)-2-(2-(3-acetyl-5-(2-cyclopropylpyrimidin-5-yl)-1H-indazol-1-yl)acetyl)-N-(6-bromopyrazin-2-yl)-2-azabicyclo[3.1.0] hexane-3-carboxamide] | < 1000 nM
7 | CC(=O)c1nn(CC(=O)N2C[C@H](F)C[C@H]2C(=O)Nc2ccn(CC(F)(F)F)n2)c2ccc(-c3cnc(C)nc3)cc12 [Compound 357, (2S,4R)-1-(2-(3-Acetyl-5-(2-methylpyrimidin-5-yl)-1H-indazol-1-yl)acetyl)-4-fluoro-N-(1-(2,2,2-trifluoroethyl)-1H-pyrazol-3-yl)pyrrolidine-2-carboxamide] | < 1000 nM
8 | CC(=O)c1nn(CC(=O)N2C[C@H](F)C[C@H]2C(=O)Nc2cccc(Br)c2Cl)c2ccc(-c3cnc(C)nc3)cc12 [Compound 358, (2S,4R)-1-(2-(3-Acetyl-5-(2-methylpyrimidin-5-yl)-1H-indazol-1-yl)acetyl)-N-(3-bromo-2-chlorophenyl)-4-fluoropyrrolidine-2-carboxamide] | < 1000 nM
9 | CC(=O)c1nn(CC(=O)N2C[C@H](F)C[C@H]2C(=O)Nc2cc(Cl)cc(Br)n2)c2ccc(-c3cnc(C)nc3)cc12 [Compound 359, (2S,4R)-1-(2-(3-Acetyl-5-(2-methylpyrimidin-5-yl)-1H-indazol-1-yl)acetyl)-N-(6-bromo-4-chloropyridin-2-yl)-4-fluoropyrrolidine-2-carboxamide] | < 1000 nM
10 | CC(=O)c1nn(CC(=O)N2C[C@H](F)C[C@H]2C(=O)Nc2cccc(Br)n2)c2cc(C(=O)N(C)C)c(-c3cnc(C)nc3)cc12 [Compound 362, 3-acetyl-1-(2-((2S,4R)-2-((6-bromopyridin-2-yl)carbamoyl)-4-fluoropyrrolidin-1-yl)-2-oxoethyl)-N,N-dimethyl-5-(2-methylpyrimidin-5-yl)-1H-indazole-6-carboxamide] | < 1000 nM
11 | CC(=O)c1nn(CC(=O)N2[C@@H]3C[C@@H]3C[C@H]2C(=O)Nc2ccn(CC(F)(F)F)n2)c2ccc(-c3cnc(C)nc3)cc12 [Compound 363, (1R,3S,5R)-2-(2-(3-acetyl-5-(2-methylpyrimidin-5-yl)-1H-indazol-1-yl)acetyl)-N-(1-(2,2,2-trifluoroethyl)-1H-pyrazol-3-yl)-2-azabicyclo[3.1.0] hexane-3-carboxamide] | < 1000 nM
12 | CC(=O)c1nn(CC(=O)N2[C@@H]3C[C@@H]3C[C@H]2C(=O)Nc2cccc(Br)n2)c2ccc(-c3cnc(N)nc3)cc12 [Compound 364, (1R,3S,5R)-2-(2-(3-Acetyl-5-(2-aminopyrimidin-5-yl)-1H-indazol-1-yl)acetyl)-N-(6-bromopyridin-2-yl)-2-azabicyclo[3.1.0]hexane-3-carboxamide] | < 1000 nM
13 | CC(=O)c1nn(CC(=O)N2[C@@H]3C[C@@H]3C[C@H]2C(=O)Nc2cnc(C)c(Br)n2)c2ccc(-c3cnc(C)nc3)cc12 [Compound 365, (1R,3S,5R)-2-(2-(3-Acetyl-5-(2-methylpyrimidin-5-yl)-1H-indazol-1-yl)acetyl)-N-(6-bromo-5-methylpyrazin-2-yl)-2-azabicyclo[3.1.0]hexane-3-carboxamide] | < 1000 nM
14 | COc1cc(Br)nc(NC(=O)[C@@H]2C[C@H]3C[C@H]3N2C(=O)Cn2nc(C(C)=O)c3cc(-c4cnc(C)nc4)ccc32)c1 [Compound 366] | < 1000 nM
15 | CC(=O)c1nn(CC(=O)N2C[C@H](F)C[C@H]2C(=O)Nc2cccc(Br)n2)c2ccc(-c3cnc(NC4CC4)nc3)cc12 [Compound 367, (2S,4R)-1-(2-(3-Acetyl-5-(2-(cyclopropylamino)pyrimidin-5-yl)-1H-indazol-1-yl)acetyl)-N-(6-bromopyridin-2-yl)-4-fluoropyrrolidine-2-carboxamide] | < 1000 nM
16 | CC(=O)c1nn(CC(=O)N2C[C@H](F)C[C@H]2C(=O)Nc2cncc(Cl)n2)c2ccc(-c3cnc(C)nc3)cc12 [Compound 368, (2S,4R)-1-(2-(3-Acetyl-5-(2-methylpyrimidin-5-yl)-1H-indazol-1-yl)acetyl)-N-(6-chloropyrazin-2-yl)-4-fluoropyrrolidine-2-carboxamide] | < 1000 nM
17 | CC(=O)c1nn(CC(=O)N2C[C@H](F)C[C@H]2C(=O)Nc2cc(C(F)(F)F)cc(Br)n2)c2ccc(-c3cnc(C)nc3)cc12 [Compound 370, (2S,4R)-1-(2-(3-Acetyl-5-(2-methylpyrimidin-5-yl)-1H-indazol-1-yl)acetyl)-N-(6-bromo-4-(trifluoromethyl)pyridin-2-yl)-4-fluoropyrrolidine-2-carboxamide] | < 1000 nM
18 | CC(=O)c1nn(CC(=O)N2[C@H](C(=O)Nc3cccc(Br)n3)C[C@@]3(C)C[C@@H]23)c2ccc(-c3cnc(C)nc3)cc12 [Compound 372, (1R,3S,5R)-2-(2-(3-Acetyl-5-(2-methylpyrimidin-5-yl)-1H-indazol-1-yl)acetyl)-N-(6-bromopyridin-2-yl)-5-methyl-2-azabicyclo[3.1.0]hexane-3-carboxamide] | < 1000 nM
19 | COc1cc2c(cc1-c1cnc(C)nc1)c(C(C)=O)nn2CC(=O)N1C[C@H](F)C[C@H]1C(=O)Nc1cccc(Br)n1 [Compound 373, (2S,4R)-1-(2-(3-Acetyl-6-methoxy-5-(2-methylpyrimidin-5-yl)-1H-indazol-1-yl)acetyl)-N-(6-bromopyridin-2-yl)-4-fluoropyrrolidine-2-carboxamide] | < 1000 nM
20 | CC(=O)c1nn(CC(=O)N2C[C@H](F)C[C@H]2C(=O)Nc2cccc(Br)n2)c2ccc(-c3cnc(CO)nc3)cc12 [Compound 374, (2S,4R)-1-(2-(3-Acetyl-5-(2-(hydroxymethyl)pyrimidin-5-yl)-1H-indazol-1-yl)acetyl)-N-(6-bromopyridin-2-yl)-4-fluoropyrrolidine-2-carboxamide] | < 1000 nM
21 | CC(=O)c1nn(CC(=O)N2[C@@H]3C[C@@H]3C[C@H]2C(=O)Nc2cncc(Cl)n2)c2ccc(-c3cnc(C)nc3)cc12 [Compound 375, (1R,3S,5R)-2-(2-(3-Acetyl-5-(2-methylpyrimidin-5-yl)-1H-indazol-1-yl)acetyl)-N-(6-chloropyrazin-2-yl)-2-azabicyclo[3.1.0]hexane-3-carboxamide] | < 1000 nM
22 | CC(=O)c1nn(CC(=O)N2C[C@H](F)C[C@H]2C(=O)Nc2ccnc(OCC(F)(F)F)n2)c2ccc(-c3cnc(C)nc3)cc12 [Compound 377, (2S,4R)-1-(2-(3-Acetyl-5-(2-methylpyrimidin-5-yl)-1H-indazol-1-yl)acetyl)-4-fluoro-N-(2-(2,2,2-trifluoroethoxy)pyrimidin-4-yl)pyrrolidine-2-carboxamide] | < 1000 nM
23 | CC(=O)c1nn(CC(=O)N2C[C@H](F)C[C@H]2C(=O)Nc2ncn(CC(F)(F)F)n2)c2ccc(-c3cnc(C)nc3)cc12 [Compound 378, (2S,4R)-1-(2-(3-Acetyl-5-(2-methylpyrimidin-5-yl)-1H-indazol-1-yl)acetyl)-4-fluoro-N-(1-(2,2,2-trifluoroethyl)-1H-1,2,4-triazol-3-yl)pyrrolidine-2-carboxamide] | < 1000 nM
24 | CNc1ncc(-c2ccc3c(c2)c(C(C)=O)nn3CC(=O)N2[C@@H]3C[C@@H]3C[C@H]2C(=O)Nc2cncc(Br)n2)cn1 [Compound 379, (1R,3S,5R)-2-(2-(3-Acetyl-5-(2-(methylamino)pyrimidin-5-yl)-1H-indazol-1-yl)acetyl)-N-(6-bromopyrazin-2-yl)-2-azabicyclo[3.1.0]hexane-3-carboxamide] | < 1000 nM

Same assay, conditions: read-out: IC50 (Stars)

Row | SMILES | IC50
25 | Cc1ncc(-c2ccc3c(c2)c(C(C)O)nn3CC(=O)N2C[C@H](F)C[C@H]2C(=O)Nc2cccc(Br)n2)cn1 (stereo partly drawn) [Compound 361, (2S,4R)-N-(6-bromopyridin-2-yl)-4-fluoro-1-(2-(3-(1-hydroxyethyl)-5-(2-methylpyrimidin-5-yl)-1H-indazol-1-yl)acetyl)pyrrolidine-2-carboxamide] | 1000 to 10000 nM
26 | Cc1ncc(-c2ccc3c(c2)c(C(C)O)nn3CC(=O)N2C[C@H](F)C[C@H]2C(=O)Nc2cccc(Br)n2)cn1 (stereo partly drawn) [Compound 376, (2S,4R)-N-(6-bromopyridin-2-yl)-4-fluoro-1-(2-(3-(1-hydroxyethyl)-5-(2-methylpyrimidin-5-yl)-1H-indazol-1-yl)acetyl)pyrrolidine-2-carboxamide] | 1000 to 10000 nM
